Test results reported in patent publication US12607406B2, “Recombinant virus, composition comprising the same, and uses thereof” (ACADEMIA SINICA, priority 2016, dated 2026).

Experiments:
Type in all cases: biochemical
[1] = system: Influenza A virus A/WSN/33 (H1N1) neuraminidase (NA) variant 44-72-219-G, substitutions at positions 44, 72, and 219, SEQ ID NO: 11
[2] = system: Influenza A virus A/WSN/33 (H1N1) neuraminidase (NA) on virus, variant 44-72-G, substitutions at positions 44 and 72, SEQ ID NO: 10
[3] = system: Influenza A virus A/WSN/33 (H1N1) neuraminidase (NA) variant 72-G, substitution at position 72, SEQ ID NO: 9
[4] = system: Influenza A virus A/WSN/33 (H1N1) neuraminidase (NA) variant 44-G, substitution at position 44, SEQ ID NO: 8
[5] = system: Influenza A virus A/WSN/33 (H1N1) neuraminidase (NA), all mutants (44-G, 72-G, 44-72-G, 44-72-219-G)
[6] = system: Influenza A virus A/WSN/33 (H1N1) neuraminidase (NA) on virus, variant 44-72-219-G, substitutions at positions 44, 72, and 219, SEQ ID NO: 11
[7] = system: Influenza A virus A/WSN/33 (H1N1) neuraminidase (NA) on virus, variant 72-G, substitution at position 72, SEQ ID NO: 9
[8] = system: Influenza A virus A/WSN/33 (H1N1) neuraminidase (NA) on virus, variant 44-G, substitution at position 44, SEQ ID NO: 8
[9] = system: Influenza A virus A/WSN/33 (H1N1) neuraminidase (NA) variant 44-72-G, substitutions at positions 44 and 72, SEQ ID NO: 10

Compound	Kcat [1] [s⁻¹]	Km [1] [µM]	Vmax [1] [nM/s]	Km [2] [µM]	Kcat [3] [s⁻¹]	Km [3] [µM]	Vmax [3] [nM/s]	Kcat [4] [s⁻¹]	Km [4] [µM]	Vmax [4] [nM/s]	Km values of all mutants [5]	Km [6] [µM]	Km [7] [µM]	Km [8] [µM]	Kcat [9] [s⁻¹]	Km [9] [µM]	Vmax [9] [nM/s]	Km value increased [3]	Km value increased [4]
CC(=O)N[C@H]1[C@H]([C@H](O)[C@H](O)CO)O[C@@](OC[C@H]2O[C@@H](O[C@H]3[C@H](O)[C@@H](NC(C)=O)C(O)O[C@@H]3CO)[C@H](O)[C@@H](O)[C@H]2O)(C(=O)O)C[C@@H]1O (stereo partly shown) [6SLN, 6′-sialyl-N-acetyllactosamine]	20.7	675	0.21	521	83.6	688	0.85	90.6	684	0.92	similar	515	540	525	19.8	679	0.24	–	–
CC(=O)N[C@H]1[C@H]([C@H](O)[C@H](O)CO)O[C@@](Oc2ccc3c(C)cc(=O)oc3c2)(C(=O)O)C[C@@H]1O [4-Muα-Neu5Ac, 2-(4-methylumbelliferyl)-α-D-N-acetylneuraminic acid]	105.8	597	1.2	429	426.8	591	4.45	468.5	595	4.95	similar	415	485	508	100.3	588	1.15	–	–
CC(=O)N[C@H]1[C@H]([C@H](O)[C@H](O)CO)O[C@@](O[C@H]2[C@@H](O)[C@@H](CO)O[C@@H](O[C@H]3[C@H](O)[C@@H](NC(C)=O)C(O)O[C@@H]3CO)[C@@H]2O)(C(=O)O)C[C@@H]1O (stereo partly shown) [3SLN, 3′-sialyl-N-acetyllactosamine]	139.1	299	1.48	285	364.4	289	3.89	389.8	295	4.09	–	281	268	274	136.4	296	1.46	more than two-fold	more than two-fold
